The results in this text go back to ChEMBL document CHEMBL6083286, “Discovery of ERD-12310A as an Exceptionally Potent and Orally Efficacious PROTAC Degrader of Estrogen Receptor α (ERα)” (J Med Chem, 2024).

Structures are written as SMILES. Active and inactive are the calls of the source. The calls are words filed in the database; no cut-off is given here.

In data set [1] the test system is T47D. The experiment in a line: PROTAC activity at CRBN/ ERalpha Y537S mutant in human T47D cells assessed as reduction in ERalpha protein level at 10 to 100 nM measured at 7 hrs by Western blot analysis. The following applies: dose 10-100 nM. It is filed as cell-based. Background: Immunoblotting shows a protein as a band on a membrane.
Data set [2] addresses T1, Protein cereblon/Estrogen receptor (Homo sapiens, UniProt P03372+Q96SW2). The data set is described as follows: PROTAC activity at CRBN/wild type ERalpha in human T47D cells assessed as reduction in ERalpha protein level at 10 to 100 nM measured at 7 hrs by Western blot analysis. In kind it is cell-based. The note with it: dose 10-100 nM.
Target sequence in this assay (P03372 whole entry, looked up): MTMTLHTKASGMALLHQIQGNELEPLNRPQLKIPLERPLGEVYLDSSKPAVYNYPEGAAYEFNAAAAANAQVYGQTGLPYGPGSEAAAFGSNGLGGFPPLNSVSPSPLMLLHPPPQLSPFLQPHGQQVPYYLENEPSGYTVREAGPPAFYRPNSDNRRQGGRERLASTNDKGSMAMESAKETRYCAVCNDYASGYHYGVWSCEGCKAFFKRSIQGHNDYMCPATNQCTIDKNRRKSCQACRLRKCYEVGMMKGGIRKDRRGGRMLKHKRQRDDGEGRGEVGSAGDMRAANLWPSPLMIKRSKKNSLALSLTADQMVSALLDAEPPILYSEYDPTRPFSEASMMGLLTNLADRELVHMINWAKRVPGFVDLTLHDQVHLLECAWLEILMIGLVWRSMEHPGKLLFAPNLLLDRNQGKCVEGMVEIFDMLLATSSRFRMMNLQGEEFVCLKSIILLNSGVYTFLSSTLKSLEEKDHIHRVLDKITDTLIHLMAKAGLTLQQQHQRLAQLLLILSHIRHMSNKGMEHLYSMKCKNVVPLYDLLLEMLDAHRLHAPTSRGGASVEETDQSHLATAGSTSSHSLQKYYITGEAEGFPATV
Target sequence in this assay (Q96SW2 whole entry, looked up): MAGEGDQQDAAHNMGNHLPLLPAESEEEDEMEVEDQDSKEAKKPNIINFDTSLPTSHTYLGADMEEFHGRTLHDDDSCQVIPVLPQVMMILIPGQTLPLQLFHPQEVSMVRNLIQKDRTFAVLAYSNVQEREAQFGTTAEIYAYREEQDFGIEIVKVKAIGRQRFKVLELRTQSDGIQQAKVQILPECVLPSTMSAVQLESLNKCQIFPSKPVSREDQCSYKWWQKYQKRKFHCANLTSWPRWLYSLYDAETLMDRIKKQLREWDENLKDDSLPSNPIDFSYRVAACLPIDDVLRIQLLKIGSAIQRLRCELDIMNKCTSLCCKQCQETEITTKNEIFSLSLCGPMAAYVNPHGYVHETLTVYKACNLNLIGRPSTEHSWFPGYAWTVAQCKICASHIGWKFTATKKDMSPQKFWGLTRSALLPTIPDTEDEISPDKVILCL
Data set [3] relates to T47D. The data set is described as follows: PROTAC activity at CRBN/ ERalpha D538G mutant in human T47D cells assessed as reduction in ERalpha protein level at 10 to 100 nM measured at 7 hrs by Western blot analysis. It is filed as cell-based. The following applies: dose 10-100 nM.
Another data set has as its system MCF7. The data set is described as follows: Antiproliferative activity against human MCF7 cells assessed as cell growth inhibition incubated for 4 days by crystal violet staining based assay. The following applies: time 4.0 day. It is filed as functional.
The target of a further data set is Protein cereblon (Homo sapiens, UniProt Q96SW2). The experiment in a line: Binding affinity to wild type GST-tagged human CRBN by HTRF assay. (In general: In TR-FRET formats the signal depends on donor and acceptor labels being close together.)
The target of data set [4] is T1, Protein cereblon/Estrogen receptor. The data set is described as follows: PROTAC activity at CRBN/ERalpha in human MCF7 cells assessed as effect on GSPT1 level at 100 nM measured for 5 hrs by Western blot analysis. In kind it is cell-based.
Target sequence in this assay (P03372 whole entry, looked up): as the sequence (P03372 whole entry, looked up) above
Target sequence in this assay (Q96SW2 whole entry, looked up): as the sequence (Q96SW2 whole entry, looked up) above
Data set [5] in a line: Drug concentration in female Sprague-Dawley rat plasma at 3 mg/kg, po measured at 24 hrs by LC-MS analysis. In kind it is ADME, organism-based.
Data set [6] can be described thus: Metabolic stability rat liver microsome assessed as half life. It is filed as ADME. The note with it: microsomes. For orientation: Microsomes from liver hold many membrane-bound enzymes, among them those of drug oxidation.
A short description of data set [7]: Metabolic stability mouse liver microsome assessed as half life. It is filed as ADME. The following applies: microsomes.
For data set [8], the target named is T1, Protein cereblon/Estrogen receptor. The data set is described as follows: PROTAC activity at CRBN/ERalpha in human MCF7 cells assessed as reduction in ERalpha protein level measured after 12 hrs by Western blot analysis relative to control. It is filed as cell-based.
Target sequence in this assay (P03372 whole entry, looked up): as the sequence (P03372 whole entry, looked up) above
Target sequence in this assay (Q96SW2 whole entry, looked up): as the sequence (Q96SW2 whole entry, looked up) above
Data set [9] is described as follows: Drug concentration in female Sprague-Dawley rat plasma at 3 mg/kg, po measured at 1 hr by LC-MS analysis. It is filed as ADME, organism-based.
The nature of data set [10]: Drug concentration in female Sprague-Dawley rat plasma at 3 mg/kg, po measured at 3 hrs by LC-MS analysis. It is filed as ADME, organism-based.
The target of data set [11] is T1, Protein cereblon/Estrogen receptor. The experiment in a line: PROTAC activity at CRBN/ERalpha in human MCF7 cells assessed as reduction in ERalpha protein level measured after 12 hrs by Western blot analysis. It is filed as cell-based.
Target sequence in this assay (P03372 whole entry): as the sequence (P03372 whole entry, looked up) above
Target sequence in this assay (Q96SW2 whole entry): as the sequence (Q96SW2 whole entry, looked up) above
Data set [12] is described as follows: Metabolic stability human liver microsome assessed as half life. It is filed as ADME. The following applies: microsomes.
Data set [13] can be described thus: Drug concentration in female Sprague-Dawley rat plasma at 3 mg/kg, po measured at 6 hrs by LC-MS analysis. In kind it is ADME, organism-based.
A short description of data set [14]: Stability in rat plasma assessed as half life. In kind it is ADME, cell-free.
Data set [15] in a line: Stability in human plasma assessed as half life. It is filed as ADME, cell-free.
Data set [16] can be described thus: Stability in mouse plasma assessed as half life. It is filed as ADME, cell-free.

Sequence of Protein cereblon (Q96SW2 whole entry): as the sequence (Q96SW2 whole entry, looked up) above

As to `CN1C(=O)CC[C@H](N2Cc3c(ccc4c3OCC43CCN(C[C@@H]4CCC5(CCN(c6ccc([C@@H]7c8ccc(O)cc8CC[C@@H]7c7ccccc7)cc6)CC5)OC4)CC3)C2=O)C1=O`, the result (in the data set with T47D [1]; in data set [2]; in the data set with T47D [3]; on Protein cereblon) was inactive. In addition, the outcome in the data set on MCF7 was Active.
For the compound `O=C1CCC(N2Cc3c(CCCCCNC(=O)[C@@H]4NC5(CCCCC5)[C@@]5(C(=O)Nc6cc(Cl)ccc65)[C@H]4c4cccc(Cl)c4F)cccc3C2=O)C(=O)N1` (stereo partly specified), the outcome in [4] was Active.
Compound `O=C1CC[C@H](N2Cc3c(ccc4c3OCC43CCN(CC(=O)N4CC5(CCN(c6ccc([C@@H]7c8ccc(O)cc8CC[C@@H]7c7ccccc7)cc6)CC5)C4)CC3)C2=O)C(=O)N1` came in with a concentration at 24 h in data set [5] of less than 5 ng/mL. Besides, the t1/2 in data set [6] is 0.817 h; in data set [7], 0.583 h; in data set [12], more than 1 h. Also, the Emax – broadly, the maximal effect, on the per cent scale that the assay sets – in data set [8] came out at 102%. The compound further registered a concentration at 1 h in data set [9] of 9 ng/mL. Also, the concentration at 3 h in data set [10] was less than 5 ng/mL. Besides, in [11], the DC50 came to 0.0341 nM. The compound further came in with a concentration at 6 h in [13] of less than 5 ng/mL.
For `O=C1CC[C@H](N2Cc3c(ccc4c3OCC43CCNCC3)C2=O)C(=O)N1`, the t1/2 in [14], in data set [6], in [7], in data set [15] and in data set [16] was more than 1 h in each case. For the same compound, on Protein cereblon, the half-maximal inhibitory concentration (IC50) (in general, the concentration needed to halve the response being measured) is 230 nM.
